Results taken from patent US20240279218A1 (Hoffmann-La Roche Inc., priority 2016, published 2024).

Experiments:
h-GABA-A α5β3γ2 [1] = target: T1, h-GABA-A α5β3γ2 (Homo sapiens (Human), UniProt P18507+P31644); test: [3H]flumazenil competition binding assay, membranes of HEK293 cells expressing human GABAA receptors; settings: displacement of [3H]flumazenil 0.5 nM, HEK293 cells expressing human receptors, mean of two determinations; read-out: Ki h-GABA-A α5β3γ2
Experimental: The affinity of compounds at GABAA receptor subtypes was measured by competition for [3H]flumazenil (85 Ci/mmol; Roche) binding to HEK293 cells expressing rat (stably transfected) or human (transiently transfected) receptors of composition α1β3γ2, α2β3γ2, α3β3γ2 and α5β3γ2.
Cell pellets were suspended in Krebs-tris buffer (4.8 mM KCl, 1.2 mM CaCl2, 1.2 mM MgCl2, 120 mM NaCl, 15 mM Tris; pH 7.5; binding assay buffer), homogenized by polytron for ca. 20 sec on ice and centrifuged for 60 min at 4° C. (50000 g; Sorvall, rotor: SM24=20000 rpm). The cell pellets were resuspended in Krebs-tris buffer and homogenized by polytron for ca. 15 sec on ice. Protein was measured (Bradford method, Bio-Rad) and aliquots of 1 mL were prepared and stored at −80° C.
Assays were incubated to equilibrium for 1 hour at 4° C. and harvested onto GF/C uni-filters (Packard) by filtration using a Packard harvester and washing with ice-cold wash buffer (50 mM Tris; pH 7.5). After drying, filter-retained radioactivity was detected by liquid scintillation counting. Ki values were calculated using Excel-Fit (Microsoft) and are the means of two determinations.

h-GABA-A α5β3γ2 [2] = target: T1, h-GABA-A α5β3γ2; test: Two-electrode voltage clamp electrophysiology in Xenopus oocytes expressing GABAA receptors, modulation of GABA EC20 current; type: cell-based; settings: Xenopus oocytes; for Efficacy (GABA) %: % modulation of GABA EC20 = 100*(Fold increase−1); for Fold increase h-GABA-A α5β3γ2 oocyte: GABA EC20, test compound at approx. 30 fold its Ki
Experimental: Xenopus laevis oocytes at maturation stages V-VI were used for the expression of cloned mRNA encoding GABAA receptor subunits. Oocytes ready for RNA micro-injection were bought from Ecocyte, Castrop-Rauxel, Germany and stored in modified Barth's medium (composition in mM: NaCl 88, KCl 1, NaHCO32.4, HEPES 10, MgSO4 0.82, CaNO3 0.33, CaCl2) 0.33, pH=7.5) at 20° C. until the experiment.
Oocytes were plated in 96-well plates to be used in an automated instrument (Robo-ocyte, MultiChannelSystems, Reutlingen, Germany) for microinjection and electrophysiological recordings. Approximately 50 nl of an aqueous solution containing the RNA transcripts for the subunits of the desired GABAA receptor was injected into each oocyte. RNA concentrations ranged between 0.3 and 16 ng/μl/subunit and were adjusted in pilot experiments to obtain GABA responses of a suitable size and a maximal effect of the reference modulator, Beta-CCM (β-CCM), a betacarboline negative allosteric modulator (NAM) at the GABAA receptor benzodiazepine (BZD) binding site or Midazolam, a benzodiazepine positive allosteric modulator (PAM) at the GABAA receptor benzodiazepine (BZD) binding site. The concentration of the γ2 subunit encoding RNA usually was 5-to 10-fold higher than the RNAs encoding the other subunits. Oocytes were kept in modified Barth's medium (composition in mM: NaCl 88, KCl 1, NaHCO3 4, HEPES 10, MgSO4 0.82, CaNO3 0.33, CaCl2 0.33, pH=7.5) at 20° C. until the experiment.
Electrophysiological experiments were performed on days 3 to 5 after the micro-injection of mRNA. During the experiment the oocytes were constantly superfused by a solution containing (in mM) NaCl 90, KCl 1, HEPES 5, MgCl2 1, CaCl2 1 (pH 7.4). Oocytes were impaled by two glass microelectrodes (resistance: 0.4 MΩ) which were filled with a solution containing KCl 1M+K-acetate 1.5 M and voltage-clamped to −80 mV. The recordings were performed at room temperature using the Roboocyte two-electrode voltage clamp system (Multichannelsystem). After an initial equilibration period of 1.5 min GABA was added for 1.5 min at a concentration evoking approximately 20% of a maximal current response (EC20). After another rest interval of 2.5 min GABA was again added evoking a response of similar amplitude and shape. […] Current traces were recorded at a digitization rate of 10 Hz during and shortly before and after the GABA application.
Each compound and concentration was tested on at least 3 oocytes.
For the analysis, the digitized current traces of the first and second GABA response were superimposed and, if necessary, rescaled to equal maximal amplitudes. The ratio between the two responses during the time interval of test compound application was calculated point by point. The extremum of the resulting “ratio trace” was taken as the efficacy (“Fold increase”) of the compound expressed as “% modulation of GABA EC20” (100*(Fold increase−1)).

| SMILES | Ki (h-GABA-A α5β3γ2 [1]) | Efficacy (GABA) % (h-GABA-A α5β3γ2 [2]) | Fold increase h-GABA-A α5β3γ2 oocyte (h-GABA-A α5β3γ2 [2]) |
| --- | --- | --- | --- |
| Cc1ccc(-c2noc(C)c2COc2cc3c(cn2)C(=O)N(C)C3)cn1 [Example 10, 2-methyl-6-((5-methyl-3-(6-methylpyridin-3-yl)isoxazol-4-yl)methoxy)-1H-pyrrolo[3,4-c]pyridin-3(2H)-one] | 0.0189 µM | 80% | 1.8 |
| Cc1ccc(-c2noc(C)c2COc2ccc(C(=O)NCC(C)C)cn2)cn1 [Example 11, N-isobutyl-6-((5-methyl-3-(6-methylpyridin-3-yl)isoxazol-4-yl)methoxy)nicotinamide] | 0.0112 µM | 55% | 1.55 |
| Cc1ccc(-c2noc(C)c2COc2cc3c(cn2)C(=O)N(CCO)C3)cn1 [Example 12, 2-(2-hydroxyethyl)-6-((5-methyl-3-(6-methylpyridin-3-yl)isoxazol-4-yl)methoxy)-1H-pyrrolo[3,4-c]pyridin-3(2H)-one] | 0.0163 µM | 74% | 1.74 |
| CCC[C@@H](CO)N1Cc2cc(OCc3c(-c4ccc(C)nc4)noc3C)ncc2C1=O [Example 13, (S)-2-(1-hydroxypentan-2-yl)-6-((5-methyl-3-(6-methylpyridin-3-yl)isoxazol-4-yl)methoxy)-1H-pyrrolo[3,4-c]pyridin-3(2H)-one] | 0.0144 µM | 158% | 2.58 |
| CCC[C@@H](CO)NC(=O)c1cnc(OCc2c(-c3ccc(C)nc3)noc2C)cn1 [Example 14, N-((1S)-1-(hydroxymethyl)butyl)-5-((5-methyl-3-(6-methyl-3-pyridyl)isoxazol-4-yl)methoxy)pyrazine-2-carboxamide] | 0.0745 µM | 160% | 2.6 |
| Cc1ccc(-c2noc(C)c2COc2cnc(C(=O)NC3CCOCC3)cn2)cn1 [Example 15, 5-((5-methyl-3-(6-methylpyridin-3-yl)isoxazol-4-yl)methoxy)-N-(tetrahydropyran-4-yl)pyrazine-2-carboxamide] | 0.0198 µM | 55% | 1.55 |
| Cc1ccc(-c2noc(C)c2COc2ccc(C(=O)NC3CCS(=O)(=O)C3)cn2)cn1 (stereo not drawn) [Example 16, N-(1,1-dioxothiolan-3-yl)-6-((5-methyl-3-(6-methyl-3-pyridyl)isoxazol-4-yl)methoxy)pyridine-3-carboxamide] | 0.0192 µM | 85% | 1.85 |
| Cc1ccc(-c2noc(C)c2COc2ccc(C(N)=O)cn2)cn1 [Example 17, 6-((5-methyl-3-(6-methylpyridin-3-yl)isoxazol-4-yl)methoxy)nicotinamide] | 0.0098 µM | 60% | 1.6 |
| Cc1ccc(-c2noc(C)c2COc2ccc(C(N)=O)nn2)cn1 [Example 18, 6-((5-methyl-3-(6-methylpyridin-3-yl)isoxazol-4-yl)methoxy)pyridazine-3-carboxamide] | 0.0102 µM | 59% | 1.59 |
| Cc1ccc(-c2noc(C)c2COc2ccc(C(=O)N[C@H]3CCS(=O)(=O)C3)cn2)cn1 [Example 19, N-((3S)-1,1-dioxothiolan-3-yl)-6-((5-methyl-3-(6-methylpyridin-3-yl)-1,2-oxazol-4-yl)methoxy)pyridine-3-carboxamide] | 0.0052 µM | 77% | 1.77 |
| Cc1ccc(-c2noc(C)c2COc2ccc(C(=O)N[C@@H]3CCS(=O)(=O)C3)cn2)cn1 [Example 20, N-((3R)-1,1-dioxothiolan-3-yl)-6-((5-methyl-3-(6-methylpyridin-3-yl)-1,2-oxazol-4-yl)methoxy)pyridine-3-carboxamide] | 0.0118 µM | 95% | 1.95 |
| Cc1ccc(-c2noc(C)c2COc2ccc(C(=O)NC3CCS(=O)(=O)CC3)cn2)cn1 [Example 21, N-(1,1-dioxothian-4-yl)-6-((5-methyl-3-(6-methylpyridin-3-yl)-1,2-oxazol-4-yl)methoxy)pyridine-3-carboxamide] | 0.0054 µM | 119% | 2.19 |
| Cc1ccc(-c2noc(C)c2COc2cc3c(cn2)C(=O)N(C2CCOCC2)C3)cn1 [Example 22, 6-((5-methyl-3-(6-methylpyridin-3-yl)isoxazol-4-yl)methoxy)-2-(tetrahydro-2H-pyran-4-yl)-1H-pyrrolo[3,4-c]pyridin-3(2H)-one] | 0.0108 µM | 44% | 1.44 |
| Cc1ccc(-c2noc(C)c2COc2ccc(C(=O)N[C@H]3CCCC[C@@H]3O)nn2)cn1 [Example 24, N-((1S,2S)-2-hydroxycyclohexyl)-6-((5-methyl-3-(6-methylpyridin-3-yl)isoxazol-4-yl)methoxy)pyridazine-3-carboxamide] | 0.0416 µM | 63% | 1.63 |
| Cc1ccc(-c2noc(C)c2COc2ccc(C(=O)N[C@@H]3CCCC[C@H]3O)nn2)cn1 [Example 25, N-((1R,2R)-2-hydroxycyclohexyl)-6-((5-methyl-3-(6-methylpyridin-3-yl)isoxazol-4-yl)methoxy)pyridazine-3-carboxamide] | 0.0094 µM | 59% | 1.59 |
| Cc1ccc(-c2noc(C)c2COc2ccc(C(=O)NC3CC3)nn2)cn1 [Example 26, N-cyclopropyl-6-((5-methyl-3-(6-methylpyridin-3-yl)isoxazol-4-yl)methoxy)pyridazine-3-carboxamide] | 0.0052 µM | 80% | 1.8 |
| Cc1ccc(-c2noc(C)c2COc2ccc(C(=O)N[C@@H]3CCCC[C@@H]3O)nn2)cn1 [Example 27, N-((1R,2S)-2-hydroxycyclohexyl)-6-((5-methyl-3-(6-methylpyridin-3-yl)isoxazol-4-yl)methoxy)pyridazine-3-carboxamide] | 0.0123 µM | 54% | 1.54 |
| Cc1ccc(-c2noc(C)c2COc2ccc(C(=O)N[C@@H]3CCOC[C@H]3O)nn2)cn1 [Example 28, N-((3S,4R)-3-hydroxytetrahydropyran-4-yl)-6-((5-methyl-3-(6-methylpyridin-3-yl)isoxazol-4-yl)methoxy)pyridazine-3-carboxamide] | 0.008 µM | 52% | 1.52 |
